Experiment: Solubility by shake flask method in various media
Type: physicochemical
Details: for Solubility: about 37° C., after 24 hours

Solubility (0.1N HCl with 1% sodium lauryl sulphate): 8.81 mg/250 ml
Solubility (0.1N HCl): 9.17 mg/250 ml
Solubility (Acetate buffer pH 4.5): 1.69 mg/250 ml
Solubility (Acetate buffer pH 4.5 with 0.1% SLS): 4.81 mg/250 ml
Solubility (Citrate buffer pH 3.0): 6.02 mg/250 ml
Solubility (Citrate buffer pH 3.0 with 1% Triton X): 8.6 mg/250 ml
Solubility (Water): 0.68 mg/250 ml
Solubility in water (in words) (water): poor solubility in water
Structure (SMILES): O=C(Nc1c(Cl)c[n+]([O-])cc1Cl)c1ccc(OC(F)F)c2oc3ccncc3c12.[Na] [3,5-dichloro-4-(6-difluoromethoxybenzo[4,5]furo[3,2-c]pyridin-9-ylcarboxamido)-1-pyridiniumolate, sodium salt]

Reference: patent US20110160213A1, “PHARMACEUTICAL COMPOSITIONS FOR THE TREATMENT OF INFLAMMATORY AND ALLERGIC DISORDERS” (Glenmark Pharmaceuticals, S.A., priority 2007, published 2011)
